Results: ChEMBL document CHEMBL5500400, “Design and Discovery of a Potent and Selective Inhibitor of Integrin αvβ1” (J Med Chem, 2024)
pIC50: −log10 of the molar value.

Columns and labels:
[1] = target: Integrin alpha-V/beta-1 (Homo sapiens, UniProt P05556+P06756); assay: Inhibition of recombinant human Integrin alphaVbeta1 using TMB as substrate incubated for 2 hrs in presence of fibronectin by ELISA; assay type: protein-complex assay
[2] = target: Integrin alpha-V/beta-3 (Homo sapiens, UniProt P05106+P06756); assay: Inhibition of recombinant human Integrin alphaVbeta3 using TMB as substrate incubated for 2 hrs in presence of vitronectin by ELISA; assay type: protein-complex assay
[3] = target: Integrin alpha-V/beta-5 (Homo sapiens, UniProt P06756+P18084); assay: Inhibition of recombinant human Integrin alphaVbeta5 using TMB as substrate incubated for 2 hrs in presence of fibronectin by ELISA; assay type: protein-complex assay
Sequence of Integrin alpha-V/beta-5 (P06756 31-889 limits assumed): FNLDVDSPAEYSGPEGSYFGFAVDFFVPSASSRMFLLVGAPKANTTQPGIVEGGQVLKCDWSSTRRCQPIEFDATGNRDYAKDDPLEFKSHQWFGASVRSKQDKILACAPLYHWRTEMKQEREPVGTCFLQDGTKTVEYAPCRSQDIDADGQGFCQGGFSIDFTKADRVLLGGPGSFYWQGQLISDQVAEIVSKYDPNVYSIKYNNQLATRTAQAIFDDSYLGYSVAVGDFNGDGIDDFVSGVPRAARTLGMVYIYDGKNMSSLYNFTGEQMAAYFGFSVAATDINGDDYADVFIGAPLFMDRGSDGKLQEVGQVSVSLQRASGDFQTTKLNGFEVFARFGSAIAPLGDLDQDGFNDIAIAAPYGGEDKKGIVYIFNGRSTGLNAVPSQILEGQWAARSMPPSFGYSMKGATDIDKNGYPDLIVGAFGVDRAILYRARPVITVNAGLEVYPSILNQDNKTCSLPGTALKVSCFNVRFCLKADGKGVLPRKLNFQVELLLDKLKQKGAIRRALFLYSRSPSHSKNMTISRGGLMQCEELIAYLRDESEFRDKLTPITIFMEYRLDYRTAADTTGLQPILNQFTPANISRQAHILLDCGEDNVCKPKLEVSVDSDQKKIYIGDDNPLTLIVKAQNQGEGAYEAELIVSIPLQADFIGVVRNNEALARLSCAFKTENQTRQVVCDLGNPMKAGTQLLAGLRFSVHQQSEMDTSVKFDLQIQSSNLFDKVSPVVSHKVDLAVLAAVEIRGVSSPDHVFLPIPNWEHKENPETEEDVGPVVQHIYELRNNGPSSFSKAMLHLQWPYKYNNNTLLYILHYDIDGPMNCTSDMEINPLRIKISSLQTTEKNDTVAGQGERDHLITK
Sequence of Integrin alpha-V/beta-5 (P06756 891-1048 limits assumed): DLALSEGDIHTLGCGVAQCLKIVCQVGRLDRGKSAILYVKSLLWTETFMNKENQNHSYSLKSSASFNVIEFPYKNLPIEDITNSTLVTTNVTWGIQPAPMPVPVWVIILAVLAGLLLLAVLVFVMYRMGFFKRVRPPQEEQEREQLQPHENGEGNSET
Sequence of Integrin alpha-V/beta-5 (P18084 24-799 limits assumed): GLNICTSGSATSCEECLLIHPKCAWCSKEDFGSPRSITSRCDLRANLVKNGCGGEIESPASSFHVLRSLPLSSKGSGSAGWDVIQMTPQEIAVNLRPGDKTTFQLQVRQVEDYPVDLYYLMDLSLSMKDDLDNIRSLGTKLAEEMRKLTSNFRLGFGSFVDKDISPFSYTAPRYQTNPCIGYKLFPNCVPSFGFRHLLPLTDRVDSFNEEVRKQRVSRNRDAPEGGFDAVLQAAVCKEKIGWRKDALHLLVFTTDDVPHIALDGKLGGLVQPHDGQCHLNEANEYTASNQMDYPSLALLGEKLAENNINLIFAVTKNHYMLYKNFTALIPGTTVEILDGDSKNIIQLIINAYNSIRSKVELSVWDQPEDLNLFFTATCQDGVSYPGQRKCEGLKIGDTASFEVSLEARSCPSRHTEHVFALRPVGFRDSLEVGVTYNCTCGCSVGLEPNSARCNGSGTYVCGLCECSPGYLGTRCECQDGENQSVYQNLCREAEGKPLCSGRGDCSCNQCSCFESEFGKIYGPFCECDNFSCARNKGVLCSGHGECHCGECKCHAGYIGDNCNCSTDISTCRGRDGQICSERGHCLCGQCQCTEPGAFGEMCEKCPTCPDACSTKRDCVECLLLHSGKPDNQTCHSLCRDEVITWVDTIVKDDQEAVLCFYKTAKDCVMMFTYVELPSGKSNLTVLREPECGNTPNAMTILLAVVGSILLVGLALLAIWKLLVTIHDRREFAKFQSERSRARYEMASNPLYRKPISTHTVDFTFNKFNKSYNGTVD

[4] = target: Integrin alpha-V/beta-6 (Homo sapiens, UniProt P06756+P18564); assay: Inhibition of recombinant human Integrin alphaVbeta6 using TMB as substrate incubated for 2 hrs in presence of LAP by ELISA; assay type: protein-complex assay
Sequence of Integrin alpha-V/beta-6 (P06756 31-889 limits assumed): as the sequence (P06756 31-889 limits assumed) above
Sequence of Integrin alpha-V/beta-6 (P06756 891-1048 limits assumed): as the sequence (P06756 891-1048 limits assumed) above
Sequence of Integrin alpha-V/beta-6 (P18564 22-788 limits assumed): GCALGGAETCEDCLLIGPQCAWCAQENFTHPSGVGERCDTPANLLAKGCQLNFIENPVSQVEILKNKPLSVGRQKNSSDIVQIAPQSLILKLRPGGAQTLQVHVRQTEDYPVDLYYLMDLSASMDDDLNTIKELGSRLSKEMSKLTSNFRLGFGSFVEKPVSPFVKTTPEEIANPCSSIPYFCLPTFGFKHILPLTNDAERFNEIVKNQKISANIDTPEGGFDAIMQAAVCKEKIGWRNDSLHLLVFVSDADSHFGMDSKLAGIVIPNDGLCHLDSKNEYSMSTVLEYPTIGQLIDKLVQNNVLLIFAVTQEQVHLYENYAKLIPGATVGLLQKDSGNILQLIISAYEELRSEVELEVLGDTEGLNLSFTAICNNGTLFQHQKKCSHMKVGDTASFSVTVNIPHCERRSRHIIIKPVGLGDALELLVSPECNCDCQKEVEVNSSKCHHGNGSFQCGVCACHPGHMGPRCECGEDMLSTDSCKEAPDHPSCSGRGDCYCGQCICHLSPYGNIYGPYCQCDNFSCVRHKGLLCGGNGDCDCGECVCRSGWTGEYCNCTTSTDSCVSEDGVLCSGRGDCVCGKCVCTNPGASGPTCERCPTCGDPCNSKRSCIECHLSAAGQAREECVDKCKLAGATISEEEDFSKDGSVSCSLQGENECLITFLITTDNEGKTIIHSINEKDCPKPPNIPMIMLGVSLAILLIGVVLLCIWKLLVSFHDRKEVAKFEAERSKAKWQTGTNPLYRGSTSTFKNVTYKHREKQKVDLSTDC

[5] = target: Integrin alpha-V/beta-8 (Homo sapiens, UniProt P06756+P26012); assay: Inhibition of recombinant human Integrin alphaVbeta8 using TMB as substrate incubated for 2 hrs in presence of LAP by ELISA; assay type: protein-complex assay
[6] = target: Integrin alpha-5/beta-1 (Homo sapiens, UniProt P05556+P08648); assay: Inhibition of recombinant human Integrin alpha5beta1 using TMB as substrate incubated for 2 hrs in presence of fibronectin by ELISA; assay type: protein-complex assay
[7] = Apparent permeability across apical to basolateral side in dog MDCK-MDR1 cells incubated for 60 mins by HPLC analysis; assay type: ADME, cell-based, Canis lupus familiaris
[8] = Apparent permeability across basolateral to apical side in dog MDCK-MDR1 cells incubated for 60 mins by HPLC analysis; assay type: ADME, cell-based, Canis lupus familiaris
[9] = target: Integrin alpha-4/beta-1 (Homo sapiens, UniProt P05556+P13612); assay: Inhibition of recombinant human Integrin alpha4beta1 using TMB as substrate incubated for 2 hrs in presence of VCAM-1 by ELISA; assay type: protein-complex assay
Sequence of Integrin alpha-4/beta-1 (P05556 whole entry): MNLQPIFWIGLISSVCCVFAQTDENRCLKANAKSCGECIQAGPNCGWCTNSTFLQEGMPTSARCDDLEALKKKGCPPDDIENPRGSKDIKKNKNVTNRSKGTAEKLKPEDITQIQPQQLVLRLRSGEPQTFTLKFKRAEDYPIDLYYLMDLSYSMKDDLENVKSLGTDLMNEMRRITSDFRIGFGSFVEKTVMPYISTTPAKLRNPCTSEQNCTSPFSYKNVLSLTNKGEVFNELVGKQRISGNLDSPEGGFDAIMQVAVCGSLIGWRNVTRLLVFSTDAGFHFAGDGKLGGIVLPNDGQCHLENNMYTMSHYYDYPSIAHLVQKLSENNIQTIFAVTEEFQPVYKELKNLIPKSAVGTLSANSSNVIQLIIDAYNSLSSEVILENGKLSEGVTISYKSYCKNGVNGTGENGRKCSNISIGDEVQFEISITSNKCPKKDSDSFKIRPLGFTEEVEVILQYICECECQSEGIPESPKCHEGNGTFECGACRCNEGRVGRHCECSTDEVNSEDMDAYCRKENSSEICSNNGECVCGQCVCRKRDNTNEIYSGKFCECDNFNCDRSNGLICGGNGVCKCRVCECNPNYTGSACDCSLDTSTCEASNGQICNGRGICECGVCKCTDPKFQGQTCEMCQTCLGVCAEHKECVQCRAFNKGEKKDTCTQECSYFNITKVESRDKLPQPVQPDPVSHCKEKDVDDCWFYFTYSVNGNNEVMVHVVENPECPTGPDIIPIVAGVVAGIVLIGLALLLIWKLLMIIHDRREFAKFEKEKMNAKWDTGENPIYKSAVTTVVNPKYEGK
Sequence of Integrin alpha-4/beta-1 (P13612 whole entry): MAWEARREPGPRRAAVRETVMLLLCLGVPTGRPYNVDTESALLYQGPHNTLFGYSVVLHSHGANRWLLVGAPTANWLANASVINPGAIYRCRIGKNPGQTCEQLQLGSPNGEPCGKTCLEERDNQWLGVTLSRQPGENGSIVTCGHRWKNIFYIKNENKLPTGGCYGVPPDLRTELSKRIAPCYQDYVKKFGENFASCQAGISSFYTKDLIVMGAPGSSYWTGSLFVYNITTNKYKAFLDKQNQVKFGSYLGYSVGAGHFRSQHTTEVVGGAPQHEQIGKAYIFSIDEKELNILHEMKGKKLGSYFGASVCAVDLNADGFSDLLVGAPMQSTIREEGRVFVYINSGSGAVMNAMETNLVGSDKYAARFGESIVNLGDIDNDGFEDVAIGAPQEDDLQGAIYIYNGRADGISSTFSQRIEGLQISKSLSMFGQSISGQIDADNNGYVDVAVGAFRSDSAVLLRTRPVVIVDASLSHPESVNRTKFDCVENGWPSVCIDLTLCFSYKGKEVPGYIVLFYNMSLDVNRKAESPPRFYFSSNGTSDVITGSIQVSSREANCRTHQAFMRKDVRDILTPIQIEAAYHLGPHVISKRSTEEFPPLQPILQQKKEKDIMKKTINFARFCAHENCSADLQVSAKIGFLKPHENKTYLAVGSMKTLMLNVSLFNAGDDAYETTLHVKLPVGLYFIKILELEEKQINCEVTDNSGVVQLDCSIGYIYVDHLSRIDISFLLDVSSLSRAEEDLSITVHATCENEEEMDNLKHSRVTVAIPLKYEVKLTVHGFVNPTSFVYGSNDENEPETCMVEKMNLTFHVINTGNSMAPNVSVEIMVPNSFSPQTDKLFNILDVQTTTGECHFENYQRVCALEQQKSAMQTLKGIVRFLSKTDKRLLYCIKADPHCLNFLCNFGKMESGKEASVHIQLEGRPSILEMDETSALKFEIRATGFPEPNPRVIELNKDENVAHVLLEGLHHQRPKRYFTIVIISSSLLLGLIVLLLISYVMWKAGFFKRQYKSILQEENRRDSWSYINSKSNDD

SMILES	pIC50 [1]	pIC50 [2]	pIC50 [3]	pIC50 [4]	pIC50 [5]	pIC50 [6]	Papp A→B at 1 h [7]	Papp B→A at 1 h [8]	pIC50 [9]
O=C(NC(CNc1ccccc1)C(=O)O)c1c(Cl)cccc1Cl (stereo unspecified)	6.70	< 5.00	< 5.00	< 5.00	< 5.00	< 5.00	–	–	–
O=C(CN1Cc2ccccc2NC1=O)NC[C@H](NC(=O)c1ccccc1Cl)C(=O)O	6.40	–	–	–	–	–	–	–	–
Cc1cnc2[nH]c(=O)n(CC(=O)NC[C@H](NC(=O)c3c(Cl)ccc(C)c3F)C(=O)O)c2c1	7.10	–	–	–	–	–	0.4 ×10⁻⁶ cm/s	0.3 ×10⁻⁶ cm/s	–
O=C(Cn1c(=O)[nH]c2ncccc21)NC[C@H](NC(=O)c1c(Cl)cccc1Cl)C(=O)O	8.40	< 5.00	< 5.00	< 5.00	5.20	6.40	–	–	5.50
O=C(Cn1c(=O)[nH]c2ncccc21)NC[C@H](NC(=O)c1c(F)cccc1Cl)C(=O)O	8.30	< 5.00	< 5.00	< 5.00	5.10	6.40	–	–	5.60
Cc1ccc(Cl)c(C(=O)N[C@@H](CNC(=O)Cn2c(=O)[nH]c3ncccc32)C(=O)O)c1F	9.20	5.30	5.40	5.40	5.70	7.20	–	–	5.80
